From PubChem BioAssay (NCI)
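1) Cells in 96-well plates. 2) Compound, 48 h, 5 concentrations. 3) Linear interpolation between surrounding doses. 4) Unreached endpoint = highest concentration. TGI: total growth inhibition.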

Legend:
Assay in all cases: DTP human tumour cell line panel, 48 h
SNB-19 CNS = test system: SNB-19 CNS
A498 renal = test system: A498 renal
RPMI-8226 leukemia = test system: RPMI-8226 leukemia
HOP-92 NSCLC = test system: HOP-92 NSCLC
SW-620 colon = test system: SW-620 colon
MALME-3M melanoma = test system: MALME-3M melanoma
SF-539 CNS = test system: SF-539 CNS
NCI-H23 lung = test system: NCI-H23 lung
HT29 colon = test system: HT29 colon
SN12C renal = test system: SN12C renal

Compound: Cc1ccc(S(=O)(=O)NC(CCC(=O)NNc2ccccc2)C(=O)NNc2ccccc2)cc1 (configuration not stated)
- TGI (SNB-19 CNS): > 100 µM
- TGI (A498 renal): > 100 µM
- TGI (RPMI-8226 leukemia): > 100 µM
- TGI (HOP-92 NSCLC): > 100 µM
- TGI (SW-620 colon): > 100 µM
- TGI (MALME-3M melanoma): > 100 µM
- TGI (SF-539 CNS): > 100 µM
- TGI (NCI-H23 lung): > 100 µM
- TGI (HT29 colon): > 100 µM

Compound: Cc1cc(-n2nnc(C(=O)O)c2-c2ccccc2)c2ccc(Cl)cc2n1
- TGI (SNB-19 CNS): > 100 µM
- TGI (A498 renal): > 100 µM
- TGI (HOP-92 NSCLC): > 100 µM
- TGI (SW-620 colon): > 100 µM
- TGI (MALME-3M melanoma): > 100 µM
- TGI (SF-539 CNS): > 100 µM
- TGI (SN12C renal): > 100 µM
- TGI (NCI-H23 lung): > 100 µM
- TGI (HT29 colon): > 100 µM

Compound: NCCCN(CCCCN(CCCN)C(=O)OCc1ccccc1)C(=O)OCc1ccccc1
- TGI (SNB-19 CNS): > 100 µM
- TGI (A498 renal): > 100 µM
- TGI (RPMI-8226 leukemia): > 100 µM
- TGI (HOP-92 NSCLC): > 100 µM
- TGI (SW-620 colon): > 100 µM
- TGI (SF-539 CNS): > 100 µM
- TGI (SN12C renal): > 100 µM
- TGI (NCI-H23 lung): > 100 µM
- TGI (HT29 colon): > 100 µM

Compound: COC(=O)[C@H](Cc1c[nH]c2ccccc12)NP(=O)(OCCC#N)OCC1OC(n2cc(C)c(=O)[nH]c2=O)CC1N=[N+]=[N-] (some centres not stated)
- TGI (SNB-19 CNS): > 100 µM
- TGI (RPMI-8226 leukemia): > 100 µM
- TGI (HOP-92 NSCLC): > 100 µM
- TGI (SW-620 colon): > 100 µM
- TGI (MALME-3M melanoma): > 100 µM
- TGI (SN12C renal): > 100 µM
- TGI (NCI-H23 lung): > 100 µM
- TGI (HT29 colon): > 100 µM

Compound: CC1CC/C(=C\c2ccc(F)cc2)C2=C1C(c1ccc(F)cc1)N1C(=O)CSC1=N2 (configuration not stated)
- TGI (SNB-19 CNS): > 100 µM
- TGI (A498 renal): > 100 µM
- TGI (RPMI-8226 leukemia): > 100 µM
- TGI (SW-620 colon): > 100 µM
- TGI (MALME-3M melanoma): > 100 µM
- TGI (SF-539 CNS): > 100 µM
- TGI (SN12C renal): > 100 µM
- TGI (NCI-H23 lung): > 100 µM
- TGI (HT29 colon): > 100 µM

Compound: COC(=O)C1=C(OC(=O)/C(=C/c2ccccc2)c2ccc(OC)cc2)C(C(=O)OC)[C@@]2(O)[C@@H](C(=O)OC)[C@H](C)C[C@@H]1[C@@H]2C(=O)OC (some centres not stated)
- TGI (SNB-19 CNS): > 100 µM
- TGI (A498 renal): > 100 µM
- TGI (RPMI-8226 leukemia): > 100 µM
- TGI (SW-620 colon): > 100 µM
- TGI (MALME-3M melanoma): > 100 µM
- TGI (SF-539 CNS): > 100 µM
- TGI (SN12C renal): > 100 µM
- TGI (NCI-H23 lung): > 100 µM
- TGI (HT29 colon): > 100 µM

Compound: CC(C)(C)OC(=O)[C@@H]1CCC(=O)N1C1(c2ccccc2)c2ccccc2-c2ccccc21
- TGI (SNB-19 CNS): > 100 µM
- TGI (A498 renal): > 100 µM
- TGI (HOP-92 NSCLC): > 100 µM
- TGI (SW-620 colon): 87.1 µM
- TGI (MALME-3M melanoma): > 100 µM
- TGI (SF-539 CNS): 35.7 µM
- TGI (SN12C renal): > 100 µM
- TGI (NCI-H23 lung): > 100 µM
- TGI (HT29 colon): 90.1 µM

Compound: Cc1ccc(S(=O)(=O)NC(=O)NC(Cc2ccc(O)cc2)C(=O)O)cc1 (configuration not stated)
- TGI (SNB-19 CNS): > 100 µM
- TGI (RPMI-8226 leukemia): > 100 µM
- TGI (HOP-92 NSCLC): > 100 µM
- TGI (SW-620 colon): > 100 µM
- TGI (MALME-3M melanoma): > 100 µM
- TGI (SF-539 CNS): > 100 µM
- TGI (SN12C renal): > 100 µM
- TGI (NCI-H23 lung): > 100 µM
- TGI (HT29 colon): > 100 µM

Compound: Cc1nc2cc(F)c(F)cc2[nH]c1=O
- TGI (SNB-19 CNS): > 100 µM
- TGI (RPMI-8226 leukemia): > 100 µM
- TGI (HOP-92 NSCLC): > 100 µM
- TGI (SW-620 colon): > 100 µM
- TGI (MALME-3M melanoma): > 100 µM
- TGI (SF-539 CNS): > 100 µM
- TGI (SN12C renal): > 100 µM
- TGI (NCI-H23 lung): > 100 µM
- TGI (HT29 colon): > 100 µM

Compound: COC(C/C(=C/CO[Si](C(C)C)(C(C)C)C(C)C)C(=O)N(COCC[Si](C)(C)C)c1ccccc1I)OC
- TGI (SNB-19 CNS): > 100 µM
- TGI (A498 renal): > 100 µM
- TGI (RPMI-8226 leukemia): > 100 µM
- TGI (HOP-92 NSCLC): > 100 µM
- TGI (SW-620 colon): > 100 µM
- TGI (SN12C renal): > 100 µM
- TGI (NCI-H23 lung): 79.5 µM
- TGI (HT29 colon): > 100 µM

Compound: O=P1(N2CCOCC2)OCCO1
- TGI (SNB-19 CNS): > 100 µM
- TGI (A498 renal): > 100 µM
- TGI (RPMI-8226 leukemia): > 100 µM
- TGI (HOP-92 NSCLC): > 100 µM
- TGI (SW-620 colon): > 100 µM
- TGI (MALME-3M melanoma): > 100 µM
- TGI (SN12C renal): > 100 µM
- TGI (NCI-H23 lung): > 100 µM
- TGI (HT29 colon): > 100 µM

Compound: COc1cc(/C=C2\CC/C(=C\c3cc(OC)c(O)c(OC)c3)C2=O)cc(OC)c1O
- TGI (SNB-19 CNS): > 100 µM
- TGI (A498 renal): 2.86 µM
- TGI (RPMI-8226 leukemia): 4.01 µM
- TGI (SW-620 colon): > 100 µM
- TGI (MALME-3M melanoma): 1.74 µM
- TGI (SF-539 CNS): > 100 µM
- TGI (SN12C renal): > 29.3 µM
- TGI (NCI-H23 lung): 5.72 µM
- TGI (HT29 colon): > 100 µM

Compound: N#CC(CCN1CCC(Nc2ccccc2)(c2nnnn2C2CCCCC2)CC1)(c1ccccc1)c1ccccc1
- TGI (SNB-19 CNS): > 100 µM
- TGI (A498 renal): > 100 µM
- TGI (RPMI-8226 leukemia): > 100 µM
- TGI (SW-620 colon): > 100 µM
- TGI (MALME-3M melanoma): > 100 µM
- TGI (SF-539 CNS): > 100 µM
- TGI (SN12C renal): > 100 µM
- TGI (NCI-H23 lung): > 100 µM
- TGI (HT29 colon): > 100 µM

Compound: O=c1[nH]nc(-c2ccccc2)n1/N=C/c1ccc([N+](=O)[O-])o1
- TGI (SNB-19 CNS): > 47.2 µM
- TGI (A498 renal): 23 µM
- TGI (RPMI-8226 leukemia): 12.8 µM
- TGI (HOP-92 NSCLC): > 24.1 µM
- TGI (SW-620 colon): 15.2 µM
- TGI (MALME-3M melanoma): 9.38 µM
- TGI (SF-539 CNS): 15.7 µM
- TGI (SN12C renal): 13.5 µM
- TGI (HT29 colon): > 48.7 µM

Compound: Nc1cc2c(c3ccccc13)C(CCl)CN2C(=O)c1cc2cc(NC(=O)Nc3ccc4[nH]c(C(=O)N5CC(CCl)c6c5cc(N)c5ccccc65)cc4c3)ccc2[nH]1 (configuration not stated)
- TGI (A498 renal): 0.832 µM
- TGI (RPMI-8226 leukemia): > 23.3 µM
- TGI (HOP-92 NSCLC): > 100 µM
- TGI (SW-620 colon): 2.07 µM
- TGI (MALME-3M melanoma): 2.03 µM
- TGI (SF-539 CNS): 1.11 µM
- TGI (SN12C renal): > 100 µM
- TGI (NCI-H23 lung): 1.02 µM
- TGI (HT29 colon): 2.01 µM

Compound: ClC(Cl)(Cl)C1CCOC1n1nnc2ccccc21 (configuration not stated)
- TGI (A498 renal): > 100 µM
- TGI (MALME-3M melanoma): > 100 µM
- TGI (SF-539 CNS): > 100 µM
- TGI (SN12C renal): > 100 µM
- TGI (NCI-H23 lung): > 100 µM
- TGI (HT29 colon): > 100 µM

Compound: O=c1[nH]c(=O)n(C2CC(O)C(CO)O2)cc1Oc1ccccc1 (configuration not stated)
- TGI (SNB-19 CNS): > 100 µM
- TGI (RPMI-8226 leukemia): > 100 µM
- TGI (MALME-3M melanoma): > 100 µM
- TGI (SN12C renal): > 100 µM
- TGI (NCI-H23 lung): > 100 µM
- TGI (HT29 colon): > 100 µM

Compound: COc1ccccc1-n1c(=O)n(C)c(=O)n1C(C)(C)C
- TGI (SNB-19 CNS): > 100 µM
- TGI (A498 renal): > 100 µM
- TGI (RPMI-8226 leukemia): > 100 µM
- TGI (SW-620 colon): > 100 µM
- TGI (MALME-3M melanoma): > 100 µM
- TGI (SF-539 CNS): > 100 µM
- TGI (SN12C renal): > 100 µM
- TGI (NCI-H23 lung): > 100 µM
- TGI (HT29 colon): > 100 µM

Compound: CC(C)(C)OC(=O)N/C(C=O)=C\C1CCCCC1
- TGI (SNB-19 CNS): 76.1 µM
- TGI (SW-620 colon): > 100 µM
- TGI (MALME-3M melanoma): 70.4 µM
- TGI (SF-539 CNS): 87.6 µM
- TGI (SN12C renal): 42.1 µM
- TGI (NCI-H23 lung): 62 µM
- TGI (HT29 colon): 71.6 µM

Compound: N#C/C(=C/C=C/c1ccco1)C(N)=O
- TGI (SW-620 colon): > 10 µM
- TGI (MALME-3M melanoma): > 10 µM
- TGI (SF-539 CNS): > 10 µM
- TGI (SN12C renal): > 10 µM
- TGI (HT29 colon): > 10 µM

Compound: CCc1cccc2c3c([nH]c12)-c1ccccc1NC(=O)C3
- TGI (SNB-19 CNS): > 100 µM
- TGI (A498 renal): > 100 µM
- TGI (RPMI-8226 leukemia): > 100 µM
- TGI (HOP-92 NSCLC): > 100 µM
- TGI (SW-620 colon): > 100 µM
- TGI (SN12C renal): > 100 µM
- TGI (NCI-H23 lung): > 100 µM
- TGI (HT29 colon): > 100 µM

Compound: C(/C=N/NC1=NCCCCN1)=N\NC1=NCCCCN1
- TGI (SNB-19 CNS): > 100 µM
- TGI (HOP-92 NSCLC): > 100 µM
- TGI (SW-620 colon): > 100 µM
- TGI (MALME-3M melanoma): > 100 µM
- TGI (SF-539 CNS): > 100 µM
- TGI (SN12C renal): > 100 µM
- TGI (NCI-H23 lung): > 100 µM
- TGI (HT29 colon): > 100 µM
